Experimental data: the supplement of paper PMC10307832

Key:
Assay in all cases: relative viability (nuclei count vs DMSO), 5 days (fraction); higher = more cells survive
Serdemetan + OSI-027 = compound: c1ccc2c(CCNc3ccc(Nc4ccncc4)cc3)c[nH]c2c1 [Serdemetan] + COc1cccc2cc(-c3nc([C@H]4CC[C@H](C(=O)O)CC4)n4ncnc(N)c34)[nH]c12 [OSI-027] (partner 0.5 µM)
Outline: (§1)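 Values are medians from duplicate plates. Each reflects relative viability, defined as the nuclei count of treated wells over that of vehicle wells. Lung cancer cell lines in 1536-well plates were pin-tool dosed one day after seeding with one drug alone or with a fixed anchor-drug dose plus five library-drug doses (not always all listed) in √10 steps, then fixed, stained and imaged at 4× after 5 days.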

Selisistat + Pemetrexed = compound: C1CC(C2=C(C1)C3=C(N2)C=CC(=C3)Cl)C(=O)N [Selisistat] + Nc1nc2[nH]cc(CCc3ccc(C(=O)N[C@@H](CCC(=O)O)C(=O)O)cc3)c2c(=O)[nH]1 [Pemetrexed] (partner 0.2 µM)
Outline: as §1

Serdemetan + Decitabine = compound: c1ccc2c(CCNc3ccc(Nc4ccncc4)cc3)c[nH]c2c1 [Serdemetan] + Nc1ncn([C@H]2C[C@H](O)[C@@H](CO)O2)c(=O)n1 [Decitabine] (partner 2 µM)
Outline: as §1

Serdemetan + Olaparib = compound: c1ccc2c(CCNc3ccc(Nc4ccncc4)cc3)c[nH]c2c1 [Serdemetan] + O=C(c1cc(Cc2n[nH]c(=O)c3ccccc23)ccc1F)N1CCN(C(=O)C2CC2)CC1 [Olaparib] (partner 8 µM)
Outline: as §1

Row | Cell Line | relative viability (Serdemetan + OSI-027; first compound 0.04 µM) | relative viability (Serdemetan + OSI-027; first compound 0.1265 µM) | relative viability (Serdemetan + OSI-027; first compound 0.4 µM) | relative viability (Serdemetan + OSI-027; first compound 4 µM) | relative viability (Selisistat + Pemetrexed; first compound 0.4 µM) | relative viability (Selisistat + Pemetrexed; first compound 1.265 µM) | relative viability (Selisistat + Pemetrexed; first compound 4 µM) | relative viability (Selisistat + Pemetrexed; first compound 12.65 µM) | relative viability (Selisistat + Pemetrexed; first compound 40 µM) | relative viability (Serdemetan + Decitabine; first compound 0.04 µM) | relative viability (Serdemetan + Decitabine; first compound 0.1265 µM) | relative viability (Serdemetan + Decitabine; first compound 0.4 µM) | relative viability (Serdemetan + Decitabine; first compound 1.265 µM) | relative viability (Serdemetan + Decitabine; first compound 4 µM) | relative viability (Serdemetan + Olaparib; first compound 0.04 µM) | relative viability (Serdemetan + Olaparib; first compound 0.1265 µM) | relative viability (Serdemetan + Olaparib; first compound 0.4 µM) | relative viability (Serdemetan + Olaparib; first compound 1.265 µM) | relative viability (Serdemetan + Olaparib; first compound 4 µM) | relative viability (Serdemetan + OSI-027; first compound 1.265 µM)
1 | 201T | 0.584 | 0.676 | 0.76 | 0.664 | 0.325 | 0.299 | 0.364 | 0.343 | 0.324 | 0.863 | 0.801 | 0.783 | 0.489 | 0.593 | 0.821 | 0.8 | 0.822 | 0.543 | 0.492 | 
2 | NCI-H2126 | 0.7 | 0.757 | 0.611 | 0.625 | 0.716 | 0.653 | 0.588 | 0.68 | 0.655 | 0.623 | 0.583 | 0.612 | 0.451 | 0.519 | 0.885 | 0.914 | 0.855 | 0.724 | 0.751 | 0.574
3 | HOP-62 | 0.869 | 0.842 | 0.856 | 0.758 | 0.327 | 0.284 | 0.448 | 0.284 | 0.488 | 0.195 | 0.256 | 0.22 | 0.196 | 0.177 | 0.482 | 0.394 | 0.489 |  | 0.263 | 0.71
4 | NCI-H520 | 0.283 | 0.273 | 0.297 | 0.293 | 0.776 | 0.676 | 0.647 | 0.668 | 0.644 | 0.44 | 0.481 | 0.57 | 0.4 | 0.335 | 0.335 | 0.347 | 0.27 | 0.199 | 0.26 | 
5 | NCI-H1755 | 0.725 | 0.687 | 0.686 | 0.568 | 0.406 | 0.431 | 0.524 | 0.619 | 0.366 | 0.697 | 0.73 | 0.668 | 0.488 | 0.434 | 0.867 | 0.769 | 0.648 | 0.493 | 0.448 | 0.563
6 | NCI-H2023 | 0.395 | 0.383 | 0.324 | 0.191 | 0.239 | 0.259 | 0.258 | 0.203 | 0.236 | 0.206 | 0.21 | 0.225 | 0.135 | 0.138 | 0.512 | 0.459 | 0.323 | 0.152 | 0.203 | 0.255
7 | NCI-H2009 | 0.653 | 0.678 | 0.628 | 0.466 | 1.13 | 1.07 | 1.06 | 1.04 | 1.04 | 0.373 | 0.37 | 0.431 | 0.328 | 0.345 | 0.777 | 0.687 | 0.688 | 0.496 | 0.497 | 0.55
